# Laboratory results reported in patent US20250319046A1, “PHENYLALANINE-BASED LAT1 INHIBITORS AND USES THEREOF” (MAXYMUNE THERAPEUTICS, INC., priority 2024, published 2025).
# Target: LAT1 (Homo sapiens (Human), UniProt Q01650)
# Assay: LAT1 uptake inhibition assay: [3H]-gabapentin competition uptake in LN229 cells
# Format: cell-based
# Conditions: [3H]-gabapentin uptake, 15 min incubation in PBS, read-out: IC50, the concentration of test compound at which the [3H]-GP uptake was inhibited by 50%
# Procedure: LAT1 Uptake Inhibition Assay
# The ability of compounds to interact with LAT1 was measured using a radiolabeled competition uptake assay with [^3H]-Gabapentin ([^3H]-GP) (Perkin Elmer) in 96-well plates with LN229 cells (ATCC®). Ten (10)×10^3 (10,000) cells/well were plated in white, clear bottom plates and were allowed to grow for three (3) days. On the fourth day, the cells were washed and then incubated with 50,000 counts per minute (cpm) of [^3H]-GP in phosphate buffered saline (PBS) (VWR International) with increasing concentrations of test compounds in at least triplicate for 15 min. At end of the assay time, the incubation solution was removed, and plates were washed three times (3×) with 100 μL of ice-cold PBS buffer. One-hundred fifty (150) […] of scintillation fluid (VWR International) was added to each well, and the radioactivity retained within the cells was measured on a 96-well scintillation counter. Background uptake ([^3H]-GP uptake in the presence of 10 mM non-radiolabeled gabapentin (GP)) (MedKoo) was subtracted and data were normalized to the DMSO control ([^3H]-GP uptake in the absence of any competitor). Data were fitted to the Michaelis-Menten equation using GraphPad Prism (Version 8.2.0).
# LAT1, sequence (Q01650 whole entry): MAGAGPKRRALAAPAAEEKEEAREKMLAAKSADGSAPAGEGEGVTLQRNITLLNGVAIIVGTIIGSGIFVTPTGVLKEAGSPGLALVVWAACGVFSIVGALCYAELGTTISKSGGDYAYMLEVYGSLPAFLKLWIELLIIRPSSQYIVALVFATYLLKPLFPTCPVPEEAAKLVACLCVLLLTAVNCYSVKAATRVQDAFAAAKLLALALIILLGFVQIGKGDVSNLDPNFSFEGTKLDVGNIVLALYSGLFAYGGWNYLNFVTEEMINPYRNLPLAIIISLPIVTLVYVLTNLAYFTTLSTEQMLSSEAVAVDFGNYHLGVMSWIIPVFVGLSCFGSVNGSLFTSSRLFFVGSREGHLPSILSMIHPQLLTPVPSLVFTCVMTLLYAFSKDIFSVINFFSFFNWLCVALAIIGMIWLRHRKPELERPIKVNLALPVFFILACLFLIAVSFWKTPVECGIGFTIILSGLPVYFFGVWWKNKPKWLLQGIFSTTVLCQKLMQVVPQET
# LAT1, sequence (P08195 whole entry partner): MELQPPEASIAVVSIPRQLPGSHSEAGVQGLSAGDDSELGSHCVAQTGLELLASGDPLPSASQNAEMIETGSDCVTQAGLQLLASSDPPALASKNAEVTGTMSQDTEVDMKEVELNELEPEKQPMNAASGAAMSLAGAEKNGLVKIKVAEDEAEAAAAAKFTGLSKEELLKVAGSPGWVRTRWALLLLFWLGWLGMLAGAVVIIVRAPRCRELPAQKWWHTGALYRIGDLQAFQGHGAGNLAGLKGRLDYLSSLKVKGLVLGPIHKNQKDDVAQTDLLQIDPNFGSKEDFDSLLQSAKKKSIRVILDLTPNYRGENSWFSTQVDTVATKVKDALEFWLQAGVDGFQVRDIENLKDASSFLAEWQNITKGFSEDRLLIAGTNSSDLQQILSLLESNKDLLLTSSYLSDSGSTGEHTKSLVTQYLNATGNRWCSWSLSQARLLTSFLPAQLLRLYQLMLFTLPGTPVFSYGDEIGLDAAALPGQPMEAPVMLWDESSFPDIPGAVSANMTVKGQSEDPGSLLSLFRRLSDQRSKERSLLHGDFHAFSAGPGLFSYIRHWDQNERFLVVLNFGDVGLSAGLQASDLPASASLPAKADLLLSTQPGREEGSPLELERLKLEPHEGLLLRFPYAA
row,Compound,IC50
1,"Cc1ccc(S(=O)(=O)N2CCC[C@@H]2C(=O)O)cc1C[C@H](N)C(=O)O [Compound 45, ((3-((S)-2-Amino-2-carboxyethyl)-4-methylphenyl)sulfonyl)-D-proline]",≥ 10000 nM
2,"CC(C)c1ccc(NS(=O)(=O)c2cccc3c(N(C)C)cccc23)cc1C[C@@H](N)C(=O)O [Compound 34, (R)-2-Amino-3-(5-((5-(dimethylamino)naphthalene)-1-sulfonamido)-2-isopropylphenyl)propanoic Acid]",1000 to 10000 nM
3,"Cc1ccc(NS(=O)(=O)c2cn(C)c(C)n2)cc1C[C@H](N)C(=O)O [Compound 18, (S)-2-Amino-3-(5-((1,2-dimethyl-1H-imidazole)-4-sulfonamido)-2-methylphenyl)propanoic Acid]",≥ 10000 nM
4,"CS(=O)(=O)Nc1ccccc1C[C@H](N)C(=O)O [Compound 1, (S)-2-Amino-3-(2-(methylsulfonamido)phenyl)propanoic Acid]",≥ 10000 nM
5,"Cc1ccc(NS(=O)(=O)c2c(Cl)cc(C(F)(F)F)cc2Cl)cc1C[C@H](N)C(=O)O [Compound 36, (S)-2-Amino-3-(5-((2,6-dichloro-4-(trifluoromethyl)phenyl)sulfonamido)-2-methylphenyl)propanoic Acid]",1000 to 10000 nM
6,"N[C@@H](Cc1cc(Cl)c(NS(=O)(=O)c2ccccc2)c(Cl)c1)C(=O)O [Compound 47, (S)-2-Amino-3-(3,5-dichloro-4-(phenylsulfonamido)phenyl)propanoic Acid]",≥ 10000 nM
7,"CC(=O)Nc1ccc(S(=O)(=O)Nc2ccc(C)c(C[C@H](N)C(=O)O)c2)c2ccccc12 [Compound 13, (S)-3-(5-((4-Acetamidonaphthalene)-1-sulfonamido)-2-methylphenyl)-2-aminopropanoic Acid]",1000 to 10000 nM
8,"N[C@@H](Cc1ccc(S(=O)(=O)Nc2ccc(Cl)cc2)cc1)C(=O)O [Compound 80, (S)-2-Amino-3-(4-(N-(4-chlorophenyl)sulfamoyl)phenyl)propanoic Acid]",1000 to 10000 nM
9,"CS(=O)(=O)Nc1cccc(C[C@H](N)C(=O)O)c1 [Compound 68, (S)-2-Amino-3-(3-(methylsulfonamido)phenyl)propanoic Acid]",≥ 10000 nM
10,"COc1ccc(NS(=O)(=O)c2cccc3c(N(C)C)cccc23)cc1C[C@H](N)C(=O)O [Compound 5, (S)-2-Amino-3-(5-((5-(dimethylamino)naphthalene)-1-sulfonamido)-2-methoxyphenyl)propanoic Acid]",100 to 1000 nM
11,"Cc1ccc(NS(=O)(=O)c2cccc(N)c2)cc1C[C@H](N)C(=O)O [Compound 28, (S)-2-Amino-3-(5-((3-aminophenyl)sulfonamido)-2-methylphenyl)propanoic Acid]",100 to 1000 nM
12,"Cc1ccc(N(C)S(=O)(=O)c2cccc3c(N(C)C)cccc23)cc1C[C@H](N)C(=O)O [Compound 16, (S)-2-Amino-3-(5-((5-(dimethylamino)-N-methylnaphthalene)-1-sulfonamido)-2-methylphenyl)propanoic Acid]",100 to 1000 nM
13,"Cc1ccc(NS(C)(=O)=O)cc1C[C@H](N)C(=O)O [Compound 67, (S)-2-Amino-3-(2-methyl-5-(methylsulfonamido)phenyl)propanoic Acid]",≥ 10000 nM
14,"Cc1ccc(S(=O)(=O)Nc2cccc3ncccc23)cc1C[C@H](N)C(=O)O [Compound 50, (S)-2-Amino-3-(2-methyl-5-(N-(quinolin-5-yl)sulfamoyl)phenyl)propanoic Acid]",100 to 1000 nM
15,"CN(C)S(=O)(=O)c1cccc(C[C@H](N)C(=O)O)c1 [Compound 73, (S)-2-Amino-3-(3-(N,N-dimethylsulfamoyl)phenyl)propanoic Acid]",1000 to 10000 nM
16,"Cc1ccc(NS(=O)(=O)c2csc3ccccc23)cc1C[C@H](N)C(=O)O [Compound 27, (S)-2-Amino-3-(5-(benzo[b]thiophene-3-sulfonamido)-2-methylphenyl)propanoic Acid]",100 to 1000 nM
17,"Cc1ccc(S(=O)(=O)Nc2ccc(Cl)cc2)cc1C[C@@H](N)C(=O)O [Compound 51, (R)-2-Amino-3-(5-(N-(4-chlorophenyl)sulfamoyl)-2-methylphenyl)propanoic Acid]",≥ 10000 nM
18,"Cc1ccc(CNS(=O)(=O)Cc2ccccc2)cc1C[C@H](N)C(=O)O [Compound 54, (S)-2-Amino-3-(2-methyl-5-(((phenylmethyl)sulfonamido)methyl)phenyl)propanoic Acid]",1000 to 10000 nM

# Next, values leading:
row,IC50,Compound
1,100 to 1000 nM,"Cc1ccc(S(=O)(=O)Nc2ccc(Cl)c(Cl)c2)cc1C[C@H](N)C(=O)O [Compound 83, (S)-2-Amino-3-(5-(N-(3,4-dichlorophenyl)sulfamoyl)-2-methylphenyl)propanoic Acid]"
2,100 to 1000 nM,"Cc1ccc(CNS(=O)(=O)c2ccccc2)cc1C[C@H](N)C(=O)O [Compound 69, (S)-2-Amino-3-(2-methyl-5-(phenylsulfonamidomethyl)phenyl)propanoic Acid]"
3,100 to 1000 nM,"Cc1ccc(S(=O)(=O)Nc2ccc(S(=O)(=O)Nc3ccc(C)c(C[C@H](N)C(=O)O)c3)cc2)cc1 [Compound 33, (S)-2-Amino-3-(2-methyl-5-((4-((4-methylphenyl)sulfonamido)phenyl)sulfonamido)phenyl)propanoic Acid]"
4,100 to 1000 nM,"COc1ccc(S(=O)(=O)Nc2ccc(C)c(C[C@H](N)C(=O)O)c2)cc1 [Compound 57, (S)-2-Amino-3-(5-((4-methoxyphenyl)sulfonamido)-2-methylphenyl)propanoic Acid]"
5,100 to 1000 nM,"CN(C)c1cccc2c(S(=O)(=O)Nc3ccccc3C[C@H](N)C(=O)O)cccc12 [Compound 19, (S)-2-Amino-3-(2-((5-(dimethylamino)naphthalene)-1-sulfonamido)phenyl)propanoic Acid]"
6,20 to 100 nM,"Cc1ccc(S(=O)(=O)N(C)c2ccc(Cl)cc2)cc1C[C@H](N)C(=O)O [Compound 84, (S)-2-Amino-3-(5-(N-(4-chlorophenyl)-N-methylsulfamoyl)-2-methylphenyl)propanoic Acid]"
7,100 to 1000 nM,"Cc1ccc(S(=O)(=O)NCC(C)C)cc1C[C@H](N)C(=O)O [Compound 46, (S)-2-Amino-3-(5-(N-isobutylsulfamoyl)-2-methylphenyl)propanoic Acid]"
8,100 to 1000 nM,"Cc1ccc(SCc2ccccc2)cc1C[C@H](N)C(=O)O [Compound 59, (S)-2-Amino-3-(5-(benzylthio)-2-methylphenyl)propanoic Acid]"
9,100 to 1000 nM,"CN(C)c1cccc2c(S(=O)(=O)Nc3cccc(C[C@H](N)C(=O)O)c3)cccc12 [Compound 3, (S)-2-Amino-3-(3-((5-(dimethylamino)naphthalene)-1-sulfonamido)phenyl)propanoic Acid]"
10,100 to 1000 nM,"Cc1ccc(NS(=O)(=O)Cc2ccccc2)cc1C[C@H](N)C(=O)O [Compound 23, (S)-2-Amino-3-(2-methyl-5-((phenylmethyl)sulfonamido)phenyl)propanoic Acid]"
